Measurements taken from the NIST ThermoML archive (doi:10.1021/je060271a).
Values joined by “and” are separate entries in the source; they are usually repeats but may differ in a detail not shown here. Identical values can stand only once.

Conditions: 343.15 K, Liquid, Vibrating tube method

CCCCCCC(=O)OCC(COC(=O)CCCCCC)(COC(=O)CCCCCC)COC(=O)CCCCCC [pentaerythritol tetraheptanoate]
Conditions | mass density
143.4 kPa | 940.7 kg/m3
144.1 kPa | 940.6 kg/m3
144.3 kPa | 940.8 kg/m3
144.8 kPa | 940.7 kg/m3 and 940.6 kg/m3
145 kPa | 940.6 kg/m3 and 940.7 kg/m3
145.7 kPa | 940.7 kg/m3
145.9 kPa | 940.6 kg/m3
146.2 kPa | 940.6 kg/m3
146.4 kPa | 940.7 kg/m3
146.9 kPa | 940.6 kg/m3
147.3 kPa | 940.6 kg/m3
147.6 kPa | 940.7 kg/m3
148.1 kPa | 940.8 kg/m3
148.5 kPa | 940.7 kg/m3
148.8 kPa | 940.6 kg/m3
149 kPa | 940.7 kg/m3
149.2 kPa | 940.7 kg/m3
149.7 kPa | 940.6 kg/m3
149.9 kPa | 940.6 kg/m3
150 kPa | 940.7 kg/m3
150.2 kPa | 940.7 kg/m3
150.4 kPa | 940.8 kg/m3
151.1 kPa | 940.6 kg/m3
151.3 kPa | 940.7 kg/m3
151.8 kPa | 940.7 kg/m3 and 940.6 kg/m3
151.9 kPa | 940.6 kg/m3
152.5 kPa | 940.7 kg/m3
153 kPa | 940.8 kg/m3
153.2 kPa | 940.8 kg/m3
153.7 kPa | 940.8 kg/m3
153.9 kPa | 940.7 kg/m3
154.2 kPa | 940.7 kg/m3
154.9 kPa | 940.7 kg/m3
155.1 kPa | 940.7 kg/m3
155.6 kPa | 940.7 kg/m3
155.8 kPa | 940.7 kg/m3
155.9 kPa | 940.8 kg/m3
156.3 kPa | 940.7 kg/m3
156.8 kPa | 940.7 kg/m3
157 kPa | 940.7 kg/m3
157.5 kPa | 940.7 kg/m3
157.9 kPa | 940.7 kg/m3
158.2 kPa | 940.7 kg/m3
159.1 kPa | 940.7 kg/m3
159.2 kPa | 940.8 kg/m3
159.6 kPa | 940.7 kg/m3
159.9 kPa | 940.7 kg/m3
160.6 kPa | 940.7 kg/m3
161.3 kPa | 940.7 kg/m3
161.5 kPa | 940.6 kg/m3
162.2 kPa | 940.6 kg/m3
162.6 kPa | 940.6 kg/m3
163.3 kPa | 940.8 kg/m3
163.4 kPa | 940.7 kg/m3
163.9 kPa | 940.7 kg/m3
164.5 kPa | 940.7 kg/m3
164.8 kPa | 940.7 kg/m3
165.2 kPa | 940.7 kg/m3
165.7 kPa | 940.7 kg/m3
166.2 kPa | 940.8 kg/m3
166.7 kPa | 940.6 kg/m3
167.3 kPa | 940.6 kg/m3
167.9 kPa | 940.6 kg/m3
168.3 kPa | 940.8 kg/m3
168.6 kPa | 940.7 kg/m3
169.2 kPa | 940.7 kg/m3
169.9 kPa | 940.6 kg/m3
170.4 kPa | 940.8 kg/m3
170.9 kPa | 940.6 kg/m3
171.2 kPa | 940.7 kg/m3
171.8 kPa | 940.6 kg/m3
172.3 kPa | 940.6 kg/m3
172.8 kPa | 940.7 kg/m3
173 kPa | 940.7 kg/m3
173.2 kPa | 940.7 kg/m3
173.7 kPa | 940.7 kg/m3
174.4 kPa | 940.6 kg/m3
174.9 kPa | 940.7 kg/m3
175.2 kPa | 940.6 kg/m3
175.9 kPa | 940.7 kg/m3
176.5 kPa | 940.8 kg/m3
177.1 kPa | 940.7 kg/m3
178 kPa | 940.7 kg/m3
178.4 kPa | 940.6 kg/m3
178.9 kPa | 940.7 kg/m3
179.6 kPa | 940.7 kg/m3
180.8 kPa | 940.7 kg/m3
181.5 kPa | 940.6 kg/m3
182.2 kPa | 940.7 kg/m3
182.7 kPa | 940.8 kg/m3
183.2 kPa | 940.7 kg/m3
184.1 kPa | 940.6 kg/m3
184.8 kPa | 940.8 kg/m3
185.3 kPa | 940.6 kg/m3
185.8 kPa | 940.8 kg/m3
186.7 kPa | 940.7 kg/m3
187.1 kPa | 940.6 kg/m3
188.1 kPa | 940.7 kg/m3
188.8 kPa | 940.6 kg/m3
189.3 kPa | 940.7 kg/m3
190 kPa | 940.8 kg/m3
191.1 kPa | 940.6 kg/m3
191.7 kPa | 940.6 kg/m3
192.3 kPa | 940.7 kg/m3
193.1 kPa | 940.6 kg/m3
193.6 kPa | 940.6 kg/m3
194.3 kPa | 940.7 kg/m3
195.4 kPa | 940.8 kg/m3
196.1 kPa | 940.8 kg/m3
197.1 kPa | 940.7 kg/m3
197.7 kPa | 940.8 kg/m3
198.3 kPa | 940.8 kg/m3
199.4 kPa | 940.6 kg/m3
200.6 kPa | 940.7 kg/m3
201.5 kPa | 940.8 kg/m3
202.5 kPa | 940.8 kg/m3
203.4 kPa | 940.7 kg/m3
204.1 kPa | 940.7 kg/m3
205.3 kPa | 940.7 kg/m3
206 kPa | 940.7 kg/m3
206.9 kPa | 940.9 kg/m3
207.7 kPa | 940.8 kg/m3
208.6 kPa | 940.7 kg/m3
210 kPa | 940.7 kg/m3
211 kPa | 940.6 kg/m3
211.7 kPa | 940.7 kg/m3
212.8 kPa | 940.9 kg/m3
213.6 kPa | 940.7 kg/m3
214.8 kPa | 940.7 kg/m3
215.9 kPa | 940.7 kg/m3
217.1 kPa | 940.8 kg/m3
218 kPa | 940.8 kg/m3
219 kPa | 940.7 kg/m3
220.2 kPa | 940.8 kg/m3
222.7 kPa | 940.7 kg/m3
224.1 kPa | 940.8 kg/m3
225.1 kPa | 940.7 kg/m3
226.1 kPa | 940.7 kg/m3
227 kPa | 940.8 kg/m3
228.6 kPa | 940.8 kg/m3
229.8 kPa | 940.8 kg/m3
231 kPa | 940.7 kg/m3
232.2 kPa | 940.7 kg/m3
233.4 kPa | 940.6 kg/m3
234.5 kPa | 940.7 kg/m3
236.2 kPa | 940.7 kg/m3
237.9 kPa | 940.8 kg/m3
239.3 kPa | 940.7 kg/m3
241.1 kPa | 940.7 kg/m3
242 kPa | 940.7 kg/m3
243.9 kPa | 940.6 kg/m3
244.9 kPa | 940.7 kg/m3
246.3 kPa | 940.8 kg/m3
248 kPa | 940.6 kg/m3
250 kPa | 940.7 kg/m3
251 kPa | 940.7 kg/m3
252.9 kPa | 940.8 kg/m3
254.6 kPa | 940.7 kg/m3
255.8 kPa | 940.8 kg/m3
257.9 kPa | 940.7 kg/m3
259.5 kPa | 940.8 kg/m3
260.5 kPa | 940.8 kg/m3
262.3 kPa | 940.8 kg/m3
263.7 kPa | 940.7 kg/m3
265.9 kPa | 940.8 kg/m3
268 kPa | 940.8 kg/m3
269.6 kPa | 940.6 kg/m3
271.8 kPa | 940.8 kg/m3
273.9 kPa | 940.8 kg/m3
276.2 kPa | 940.7 kg/m3
277.7 kPa | 940.7 kg/m3
279.5 kPa | 940.8 kg/m3
281.6 kPa | 940.7 kg/m3
284.2 kPa | 940.8 kg/m3
287.1 kPa | 940.8 kg/m3
288.7 kPa | 940.8 kg/m3
291.3 kPa | 940.8 kg/m3
293.5 kPa | 940.9 kg/m3
295.8 kPa | 940.7 kg/m3
297.9 kPa | 940.8 kg/m3
302.9 kPa | 940.9 kg/m3
305.2 kPa | 940.8 kg/m3
308.3 kPa | 940.8 kg/m3
310.8 kPa | 940.8 kg/m3
314.1 kPa | 940.9 kg/m3
316.5 kPa | 940.9 kg/m3
319.1 kPa | 940.8 kg/m3
321.4 kPa | 940.8 kg/m3
324.7 kPa | 940.8 kg/m3
327.3 kPa | 940.7 kg/m3
330.2 kPa | 940.7 kg/m3
333.5 kPa | 940.9 kg/m3
336 kPa | 940.7 kg/m3
340 kPa | 940.7 kg/m3
343.3 kPa | 940.9 kg/m3
346.2 kPa | 940.8 kg/m3
349.4 kPa | 940.8 kg/m3
353.2 kPa | 941 kg/m3
356.5 kPa | 940.7 kg/m3
359.8 kPa | 940.9 kg/m3
364.3 kPa | 940.9 kg/m3
367.4 kPa | 940.8 kg/m3
371.8 kPa | 940.8 kg/m3
375.3 kPa | 940.8 kg/m3
378.9 kPa | 940.8 kg/m3
382.9 kPa | 941 kg/m3
387.8 kPa | 940.9 kg/m3
391.6 kPa | 940.9 kg/m3
395.9 kPa | 940.9 kg/m3
400.5 kPa | 940.9 kg/m3
405 kPa | 940.9 kg/m3
410.2 kPa | 941 kg/m3
414.7 kPa | 941 kg/m3
419.2 kPa | 940.9 kg/m3
423.8 kPa | 940.9 kg/m3
429.5 kPa | 940.8 kg/m3
434.5 kPa | 940.9 kg/m3
440.6 kPa | 940.9 kg/m3
445.7 kPa | 940.9 kg/m3
451.2 kPa | 941 kg/m3
457.5 kPa | 941 kg/m3
463.2 kPa | 940.9 kg/m3
468.9 kPa | 940.8 kg/m3
